Series [1] can be described thus: Characterization of the lipid nanoparticles prepared in Example 6. It is filed as physicochemical. As to conditions: cationic lipid analogue:cholesterol:DSPC:DMG-PEG 50:38.5:10:1.5. An excerpt:
The drug-loaded nanoparticle included a cationic lipid analogue, cholesterol, distearoylphosphatidylcholine (DSPC), and 1,2-dimyristoyl-rac-glycerol-3-methoxypolyethylene glycol (DMG-PEG), • wherein a molar ratio of the cationic lipid analogue:cholesterol:DSPC:DMG-PEG was 50:38.5:10:1.5.
In the drug-loaded nanoparticle, a mass ratio of the cationic lipid analogue to the nucleic acid drug, such as mRNA or siRNA, etc., was 11:1.
A cationic lipid analogue, cholesterol, DSPC, and DMG-PEG were dissolved in an ethanol solution, and mixed in the above-mentioned molar ratio to obtain an organic phase. Then, an mRNA nucleic acid drug at a corresponding mass ratio was dissolved in a sodium acetate buffer solution (25 mM, pH=3.0) to obtain an aqueous phase, so that a volume ratio of the aqueous phase to the organic phase was 3:1. Then, the aqueous phase was quickly added to the organic phase and mixed evenly, and the mixture was allowed to stand for 10 minutes. After that, the mixture was put into a 1000 Da dialysis bag, and dialyzed in a 1×PBS solution at 4° C. for 2 hours to obtain the nanoparticle that can be directly used for injection.

The subject of series [2] is C57BL/6 mice. Kind of series: In vivo expression level of Luciferase-mRNA delivered by intraperitoneal injection (bioluminescence imaging). The note with it: mRNA-loaded nanoparticles, 5 μg Luciferase-mRNA, 6 hours. On the procedure:
(§1) Luciferase-mRNA was used as an mRNA model; and the cationic lipid analogue A1I4R22C18-2 of Example 2 was used to prepare drug-loaded nanoparticles according to the method of Example 6.
200 μL of nanoparticles containing 5 μg Luciferase-mRNA or the drug-loaded nanoparticles prepared above were intraperitoneally injected into 6-8 week-old C57BL/6 mice, and 200 μL of 1×PBS solution containing 3 mg D-Luciferin potassium salt was intraperitoneally injected into the mice 6 hours later. After waiting for 10 minutes, an in vivo mRNA expression level of the m-RNA was evaluated by bioluminescence imaging.

Series [3] deals with C57BL/6 mice. Description: In vivo expression level of Luciferase-mRNA delivered by tracheal injection (bioluminescence imaging). As to conditions: mRNA-loaded nanoparticles, 5 μg Luciferase-mRNA, 6 hours. How it is done: as §1
100 μL of nanoparticles containing 5 μg Luciferase-mRNA or the drug-loaded nanoparticles prepared above were tracheally injected into 6-8 week-old C57BL/6 mice, and 200 μL of 1×PBS solution containing 3 mg D-Luciferin potassium salt was intraperitoneally injected into the mice 6 hours later. After waiting for 10 min, an in vivo mRNA expression level was evaluated by bioluminescence imaging.

The test system of series [4] is C57BL/6 mice. Description: In vivo expression level of Luciferase-mRNA delivered by intramuscular injection (bioluminescence imaging). As to conditions: mRNA-loaded nanoparticles, intramuscular (leg muscle), 5 μg Luciferase-mRNA, 6 hours. The method, boiled down: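 LNPs prepared with cationic lipid analogues carrying 5 μg Luciferase-mRNA injected into leg muscle of 6-8 week-old C57BL/6 mice. D-Luciferin (3 mg, i.p.) given 6 h post-dose; bioluminescence imaged 10 min later as in vivo mRNA expression level.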

The test system of series [5] is C57BL/6 mice. Description: In vivo expression level of Luciferase-mRNA delivered by intravenous injection (bioluminescence imaging). As to conditions: mRNA-loaded nanoparticles, intravenous (tail vein), 5 μg Luciferase-mRNA, 6 hours. The method, boiled down:
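Lipid nanoparticles carrying 5 μg Luciferase-mRNA given by tail-vein injection to 6-8-week-old C57BL/6 mice. At 6 h, 3 mg D-luciferin i.p. in PBS; bioluminescence imaged 10 min later as the expression read-out.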

Consider two compounds from patent US20250161216A1, “CATIONIC LIPID ANALOGUES, COMPOSITIONS AND USES THEREOF” (GUANGZHOU LIDE BIOMEDICINE TECHNOLOGY CO., LTD., priority 2022, published 2025).

Consider `CCCCC/C=C\C/C=C\CCCCCCCC(=O)N(CCO)C(C(=O)NCCN(C)CCNC(=O)C(C(C)C)N(CCO)C(=O)CCCCCCC/C=C\C/C=C\CCCCC)C(C)C` (centres unmarked) [A1I4R22C18-2], for which, in series [1], the “Diameter of the nanoparticles” value was 133 ± 6 nm, the PDI came out at 0.17, the Zeta potential is on record as −5.5 mV and the encapsulation efficiency is listed as 62.1%. Also, in the series on C57BL/6 mice [2], the “Fluorescence intensity of spleen” value came out at 6.48E+06. Besides, in the series with C57BL/6 mice [3], the “Fluorescence intensity of spleen” value is 2.54E+05. This compound displayed a Local fluorescence intensity in the series on C57BL/6 mice [4] (compounds of Example 2) of 2.69E+05. Also, in the series with C57BL/6 mice [5] (compounds of Example 2), the “Fluorescence intensity of spleen” value is given as 1.47E+06.
Consider `CCCCC/C=C\C/C=C\CCCCCCCC(=O)N(CCCN(CC)CC)C(C(=O)NCCCCCCCCCCCCCCCCCC)C(CC)CCCC` (centres unmarked) [A4I18R3C18-2], for which, in series [1], the “Diameter of the nanoparticles” value is recorded as 83 ± 9 nm, the PDI was 0.12, the Zeta potential was −3.2 mV and the encapsulation efficiency was 75.3%. The compound further came in with a Local fluorescence intensity in the series on C57BL/6 mice [4] (compounds of Example 1) of 3.08E+07. This compound also registered a Bioluminescence intensity with C57BL/6 mice [5] (compounds of Example 1) of 2.29E+07.
